The source of these data is PubChem BioAssay AID1159565 (GlaxoSmithKline (GSK), 2015).

Activity calls are given as the source filed them. No rule for the calls is given here.

The IC50 is the concentration that inhibits the measured activity by half.

One assay relates to T. cruzi-infected H9C2 cardiomyocytes, high-content imaging. Briefly: intracellular T. cruzi amastigote inhibition, imaging, H9C2 host cardiomyocytes, host toxicity (AID 1159565).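 Also: infected cells incubated 72 h after plating.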
Settings: not given
For the molecule `O=C(Nc1cccc(S(=O)(=O)Nc2ccc(Br)cc2)c1)c1ccc([N+](=O)[O-])s1`, the IC50 is 0.13 µM.

In the case of `Cc1ccc(NC(C)C(=O)Nc2ccc(C#N)cc2)cc1S(=O)(=O)N1CCCCC1` (stereo unspecified), the IC50 was 7.9 µM.

On to `Cc1cccnc1NC(=O)c1cccc(OCc2c(C)noc2C)c1`, for which the IC50 is 50 µM.

For `O=C(Nc1cccc(F)c1)N1CCC(Oc2cccc(-c3cccnc3)c2)CC1`, the IC50 is 0.63 µM.

As to `O=C(Nc1cccc(Cl)c1)N1CCCCC1c1cccnc1` (stereo unspecified), the half-maximal inhibitory concentration (IC50) was 0.2 µM.

Regarding `O=C(NCC1CCCCN1C(=O)c1cccc2ccccc12)c1ccccc1` (stereo unspecified), the half-inhibitory concentration (IC50) was 5 µM.

As to `NC(=O)c1cc(F)ccc1Nc1nc(NC2CCC(O)CC2)ncc1Cl` (stereo unspecified), the concentration for half-maximal inhibition (IC50) was 5 µM.

Turning to `CNc1cncc(C2CCCN2C(=O)Cc2coc3cc(C)ccc23)n1` (stereo unspecified), the IC50 was 0.2 µM.

With `CCN(CC)S(=O)(=O)c1ccc(Cn2nc(C(=O)Nc3ccncn3)c3ccccc32)cc1`, the 50% inhibitory concentration (IC50) is 0.4 µM.

In the case of `COc1ccc(C(=O)NC2CCN(CCn3c(=O)ccc4ncc(F)cc43)CC2)cc1Cl`, the 50% inhibitory concentration (IC50) was 0.63 µM.

Turning to `NCc1ccc2c(Cl)cc(Cl)c(O)c2n1`, the 50% inhibitory concentration (IC50) is 2 µM.

As for `Cc1ccccc1NS(=O)(=O)c1ccc2[nH]cc(C(=O)NC3CCCC(C)C3C)c(=O)c2c1` (stereo unspecified), the concentration for half-maximal inhibition (IC50) was 6.3 µM.

`CN1CCN(c2nc(-c3ccc(Cl)cc3)c3c(N)n(C)nc3n2)CC1`: the IC50 is 1 µM.

In the case of `NC(=O)c1ncc(N[C@@H]2CCCNC2)nc1Nc1cccc(Cl)c1`, the IC50 was 0.4 µM.

`CS(=O)(=O)c1ccc(Nc2nccc(-c3cnn4ncccc34)n2)cc1`: the IC50 was 25 µM.

For `CCN(CC)S(=O)(=O)c1ccc(C(=O)Nc2cc(C)nn2-c2nc(C)c(C)c(=O)[nH]2)cc1`, the IC50 was 1.6 µM.

Take `CCOc1ccccc1C(=O)Nc1nnc(-c2ccc3c(c2)OCO3)s1`: the IC50 is 0.079 µM.

As to `CC1(C)CCC(=Cc2ccc(Cl)cc2)CC1(O)Cn1ccnc1` (stereo unspecified), the IC50 was 0.0079 µM.

In the case of `CC(C)COC(=O)Nc1ccc(N2CCC(CNS(=O)(=O)c3ccccc3)CC2)c(F)c1`, the IC50 is 7.9 µM.

On to `CCN(Cc1ccncc1)Cc1ccc(NC(=O)c2cc(-c3ccc(F)cc3)n[nH]2)cc1`, for which the half-inhibitory concentration (IC50) was 0.25 µM.

For `COCCn1c(-c2ccccc2)cnc1NCc1ccccc1OC`, the half-inhibitory concentration (IC50) was 16 µM.

Consider `O=S(=O)(c1cccc(CSc2nnc(-c3ccc4c(c3)OCO4)o2)c1)N1CCOCC1`, for which the half-inhibitory concentration (IC50) is 0.1 µM.

`CCCCn1c(=O)c2c(N)onc2n(CCCC)c1=O`: the half-inhibitory concentration (IC50) was 32 µM.

On to `CN(C)c1ccc(N)cc1CN(CC1CCCO1)S(C)(=O)=O` (stereo unspecified), for which the IC50 is > 50 µM (inactive).

As to `COc1ccc2nccc([C@H](O)CN3CC[C@H](NC(=O)c4ccc(Br)cc4)[C@@H](O)C3)c2n1`, the half-maximal inhibitory concentration (IC50) was 1.6 µM.

For `COc1cccc(-c2cc(C(F)(F)F)nc(-n3ccc([N+](=O)[O-])n3)n2)c1`, the IC50 was 0.4 µM.

Take `O=C(NCc1ccc(Cl)cc1)C1CN(C(=O)c2ccc(F)cc2)CCS1` (stereo unspecified): the IC50 was 40 µM.

On to `COc1cc(OC)cc(C(=O)N[C@@H](CC(C)C)C(=O)NC2(C#N)CC2)c1`, for which the IC50 is > 50 µM (inactive).

With `O=C(CSc1ccc(F)cc1)N[C@@H](Cc1cnc[nH]1)C(=O)NCCc1ccccc1`, the IC50 is 0.5 µM.

With `NC(=O)c1ncccc1Nc1nc(NC2CCC(O)CC2)ncc1Br` (stereo unspecified), the half-inhibitory concentration (IC50) was 2 µM.

As for `Cc1cc(-c2cccc3ccccc23)nc2nc(N)nc(N)c12`, the IC50 was > 50 µM (inactive).

As for `CN(CC1CCCO1)S(=O)(=O)c1ccc(C(=O)Nc2nc(-c3ccccn3)cs2)cc1` (stereo unspecified), the IC50 was 2 µM.

With `CCOc1ccc(NC(=O)c2ccc(NC(=O)NC3CCCCC3)cc2)cc1`, the IC50 is > 50 µM (inactive).

Regarding `O=C(NCCc1ccccn1)C(c1cn[nH]c1)N1CCN(c2ccc(Cl)c(Cl)c2)CC1` (stereo unspecified), the IC50 is 0.16 µM.

In the case of `Cc1[nH]n2c(=O)c3c(nc2c1-c1ccc(Br)cc1)CCCC3`, the IC50 is 1.6 µM.

For `Cc1ccc(NC(=O)c2ccnc(N3CCCC3)c2)cc1-c1cc(C(N)=O)ccc1C`, the IC50 was 10 µM.

Take `C=CCn1nc([N+](=O)[O-])nc1Oc1ccc(Cl)cc1Cl`: the IC50 is 0.25 µM.

For `Cn1ccnc1CN1CCc2[nH]cnc2C1c1ccccc1OCc1ccccc1` (stereo unspecified), the IC50 is > 50 µM (inactive).

For the molecule `O=C(Nc1ccc(C(F)(F)F)cc1)Nc1cccc([N+](=O)[O-])c1`, the IC50 is 1.3 µM.

On to `O=C(Cn1cnc2cc([N+](=O)[O-])ccc2c1=O)NCCc1ccc(Cl)cc1Cl`, for which the IC50 was 0.4 µM.

With `CC(CCc1ccccc1)NC(=O)CN(Cc1ccccn1)Cc1ccccn1` (stereo unspecified), the IC50 is 10 µM.

Regarding `Cc1nn(-c2nc3ccccc3s2)c2c1C(c1ccc(OCC(N)=O)cc1)SCC(=O)N2` (stereo unspecified), the IC50 was > 50 µM (inactive).

With `COc1ccc(NS(=O)(=O)c2cccc(NC(=O)c3cc(F)cc(F)c3)c2)cc1`, the IC50 is 0.5 µM.

In the case of `COc1ccc(Nc2nc(-c3ccccn3)cs2)c(OC)c1`, the IC50 was 7.9 µM.

For `COc1ccc(CNc2nsc3ccccc23)cc1OC`, the IC50 is 25 µM.

For `CC(c1ccc2c(c1)CCCC2)N(C)c1ncc2c(N)nc(N)nc2n1` (stereo unspecified), the IC50 was 0.032 µM.

As for `Cc1cccc(NS(=O)(=O)c2ccc3c(c2)C(=O)c2cc(S(=O)(=O)Nc4cccc(C)c4C)ccc2-3)c1C`, the 50% inhibitory concentration (IC50) was 0.4 µM.

For `COc1ccc(Nc2nccc(N(C)c3n[nH]c4c(F)cccc34)n2)cc1S(C)(=O)=O`, the 50% inhibitory concentration (IC50) is 4 µM.

As for `CC(C)Oc1cccc(N2CCC(C(=O)N3CCCN(C(C)C)CC3)CC2)c1`, the IC50 was 0.63 µM.

In the case of `O=C(CCCNC(=O)c1ccc(Cl)cc1)Nc1nc(-c2ccccn2)cs1`, the half-inhibitory concentration (IC50) is 25 µM.

As to `O=c1[nH]c(C=Cc2cccc(OCCOc3ccccc3)c2)nc(O)c1[N+](=O)[O-]`, the half-inhibitory concentration (IC50) was 0.2 µM.

With `COc1ccc(NS(=O)(=O)c2cc(-c3cc(C)[nH]n3)ccc2C)cc1OC`, the IC50 was 2 µM.

Consider `OC[C@@H](Nc1nccc(-c2c(-c3ccc(F)cc3)ncn2C2CCNCC2)n1)c1ccccc1`, for which the IC50 is 13 µM.

For the molecule `N#Cc1cccc(Cc2cc(Nc3cc(C4CC4)[nH]n3)nc(N3CC[C@H]3C(N)=O)n2)c1`, the IC50 was 4 µM.

The same assay, now with this note: measured here: H9C2 host cell toxicity.
Turning to `O=C(Nc1cccc(S(=O)(=O)Nc2ccc(Br)cc2)c1)c1ccc([N+](=O)[O-])s1`, the half-maximal inhibitory concentration (IC50) is 2.5 µM.

Turning to `Cc1ccc(NC(C)C(=O)Nc2ccc(C#N)cc2)cc1S(=O)(=O)N1CCCCC1` (stereo unspecified), the concentration for half-maximal inhibition (IC50) is over 50 µM.

`Cc1cccnc1NC(=O)c1cccc(OCc2c(C)noc2C)c1` displayed an IC50 of 2.5 µM.

`O=C(Nc1cccc(F)c1)N1CCC(Oc2cccc(-c3cccnc3)c2)CC1`: the IC50 was found to be 25 µM.

`O=C(Nc1cccc(Cl)c1)N1CCCCC1c1cccnc1` (stereo unspecified) had a 50% inhibitory concentration (IC50) of over 50 µM.

Molecule `O=C(NCC1CCCCN1C(=O)c1cccc2ccccc12)c1ccccc1` (stereo unspecified) showed an IC50 of over 50 µM.

Turning to `NC(=O)c1cc(F)ccc1Nc1nc(NC2CCC(O)CC2)ncc1Cl` (stereo unspecified), the IC50 was 1.6 µM.

In the case of `CNc1cncc(C2CCCN2C(=O)Cc2coc3cc(C)ccc23)n1` (stereo unspecified), the half-inhibitory concentration (IC50) was over 50 µM.

For the molecule `CCN(CC)S(=O)(=O)c1ccc(Cn2nc(C(=O)Nc3ccncn3)c3ccccc32)cc1`, the IC50 worked out at 25 µM.

`COc1ccc(C(=O)NC2CCN(CCn3c(=O)ccc4ncc(F)cc43)CC2)cc1Cl`: the IC50 is over 50 µM.

Turning to `NCc1ccc2c(Cl)cc(Cl)c(O)c2n1`, the half-maximal inhibitory concentration (IC50) amounted to 6.3 µM.

On to `Cc1ccccc1NS(=O)(=O)c1ccc2[nH]cc(C(=O)NC3CCCC(C)C3C)c(=O)c2c1` (stereo unspecified), for which the IC50 was found to be 6.3 µM.

On to `CN1CCN(c2nc(-c3ccc(Cl)cc3)c3c(N)n(C)nc3n2)CC1`, for which the half-maximal inhibitory concentration (IC50) was 25 µM.

In the case of `NC(=O)c1ncc(N[C@@H]2CCCNC2)nc1Nc1cccc(Cl)c1`, the 50% inhibitory concentration (IC50) is 1.3 µM.

`CS(=O)(=O)c1ccc(Nc2nccc(-c3cnn4ncccc34)n2)cc1`: the 50% inhibitory concentration (IC50) was 5 µM.

As for `CCN(CC)S(=O)(=O)c1ccc(C(=O)Nc2cc(C)nn2-c2nc(C)c(C)c(=O)[nH]2)cc1`, the 50% inhibitory concentration (IC50) was over 50 µM.

In turn, `CCOc1ccccc1C(=O)Nc1nnc(-c2ccc3c(c2)OCO3)s1` came in with a half-inhibitory concentration (IC50) of over 50 µM.

On to `CC1(C)CCC(=Cc2ccc(Cl)cc2)CC1(O)Cn1ccnc1` (stereo unspecified), for which the IC50 came to 32 µM.

The molecule `CC(C)COC(=O)Nc1ccc(N2CCC(CNS(=O)(=O)c3ccccc3)CC2)c(F)c1` gave a 50% inhibitory concentration (IC50) of over 79 µM.

As to `CCN(Cc1ccncc1)Cc1ccc(NC(=O)c2cc(-c3ccc(F)cc3)n[nH]2)cc1`, the IC50 was over 50 µM.

`COCCn1c(-c2ccccc2)cnc1NCc1ccccc1OC` had a half-maximal inhibitory concentration (IC50) of over 50 µM.

Molecule `O=S(=O)(c1cccc(CSc2nnc(-c3ccc4c(c3)OCO4)o2)c1)N1CCOCC1` had an IC50 of 25 µM.

The molecule `CCCCn1c(=O)c2c(N)onc2n(CCCC)c1=O` showed a concentration for half-maximal inhibition (IC50) of 25 µM.

For the molecule `CN(C)c1ccc(N)cc1CN(CC1CCCO1)S(C)(=O)=O` (stereo unspecified), the IC50 is over 50 µM.

Molecule `COc1ccc2nccc([C@H](O)CN3CC[C@H](NC(=O)c4ccc(Br)cc4)[C@@H](O)C3)c2n1` registered a half-inhibitory concentration (IC50) of 2 µM.

The molecule `COc1cccc(-c2cc(C(F)(F)F)nc(-n3ccc([N+](=O)[O-])n3)n2)c1` registered an IC50 of over 50 µM.

Turning to `O=C(NCc1ccc(Cl)cc1)C1CN(C(=O)c2ccc(F)cc2)CCS1` (stereo unspecified), the half-inhibitory concentration (IC50) is over 50 µM.
